Laboratory results as given in US12366570B2, “Cell-based ZNT8 assay” (THE JOHNS HOPKINS UNIVERSITY, priority 2019, dated 2025).

Legend:
ZnT8 [1] = assay: Immunoblotting of ZnT8 (mAb20) in total cell lysate; type: cell-based, human; conditions: 24 hr
Method: Immunoblotting. Cells in a 96-well plate were directly resuspended in 50 μl/well 1× Laemmli Sample Buffer (Bio-Rad cat. #1610737). An aliquot of 15 μl SDS-lysate was loaded onto a precast protein gel for SDS-PAGE and subsequent immunoblotting using the following antibodies directed to ZnT8 (mAb20), tubulin (Invitrogen, Cat. #MA1-83256), calnexin (Proteintech, Cat. #10427-2-AP), BAP31 (Proteintech, Cat. #11200-1-AP), IA2 (Proteintech, Cat. #10584-1-AP), TMED3 (Proteintech, Cat. #21902-1-AP), VAMP2 (Proteintech, Cat. #10135-1-AP), Golgin97 (Proteintech, Cat. #12640-1-AP) and HLA-I (Proteintech, Cat. #15240-1-AP). Protein band intensity was measured using ImageJ, and the numerical value for each stressor-treated protein sample was normalized to the untreated sample on the same immunoblot.
SLC30A8 knockdown. To perform gene silencing by RNA interference, a master mix of Opti-MEM reduced serum-free medium (Gibco, cat. #31985-062) was pre-mixed with 0.4% RNAiMAX transfection reagent (Invitrogen, cat. #13778-100) and 75 nM ZnT8 targeting or scrambled siRNA (OriGene cat. #SR325944). The solution was then incubated at room temperature for 10 min to form siRNA-lipid complexes before 50 μl of the master mix was added to each well in a 96-well plate. Cells resuspended in standard culturing media were added in a 1:1 volume to give 7×10^4 cells per well. […]

EndoC-βH1 cells [2] = assay: CellTox Green cytotoxicity assay; type: cell-based
Method: Cytotoxicity Assay. Cell culture and experiments were performed in a 96-well plate in culture media without phenol red (Sigma, Cat. #D4947). Cytotoxicity in cell culture after experimental manipulation was continuously monitored based on the change in the fluorescence intensity of a CellTox Green Dye (Promega, Cat. #G8741) that preferentially stained dead cells with a loss of membrane integrity. The dye was 1:1000 diluted in the culture medium and delivered directly to cells at the same time of dose titrations of Glc+PA, zinc and cytokines. CellTox fluorescence signals were recorded on a FlexStation-3 multi-mode microplate reader with eight replicates at 0, 1, 2, 4, 6, 8, 20, 24, 30, and 48 hr following dye and stressor additions. Viable cells in the control cell culture medium produced no appreciable increases in CellTox fluorescence due to an excellent tolerance of EndoC-βH1 cells to the dye. At the end of experiment, all cells were lysed by adding detergent (DDM) to 0.1% in each well, and the maximum CellTox fluorescence intensity was recoded and used for normalization of the CellTox fluorescence intensity.
SLC30A8 knockdown. To perform gene silencing by RNA interference, a master mix of Opti-MEM reduced serum-free medium (Gibco, cat. #31985-062) was pre-mixed with 0.4% RNAiMAX transfection reagent (Invitrogen, cat. #13778-100) and 75 nM ZnT8 targeting or scrambled siRNA (OriGene cat. #SR325944). The solution was then incubated at room temperature for 10 min to form siRNA-lipid complexes before 50 μl of the master mix was added to each well in a 96-well plate. Cells resuspended in standard culturing media were added in a 1:1 volume to give 7×10^4 cells per well. After 24 h, the transfection media were replaced with complete culturing media. After additional 2 days, cells were exposed to 1× cytokine cocktail, followed by immunoblotting and cytotoxicity analysis as described above.

EndoC-βH1 cells [3] = assay: Total cellular insulin content, HTRF insulin assay; type: cell-based, human; conditions: 24 hr
Method: GSIS and insulin quantification. EndoC-βH1 cells with dose titrations of Glc+PA, zinc or cytokines cocktail in a 96-well plate were switched to a Krebs buffer (Alfa Aesar, cat. #J67795). After cell starvation in Krebs buffer for 1 h, EndoC-βH1 cells were replaced with fresh Krebs buffer containing 20 mM glucose plus 45 μM IBMX. After 45 min, the Krebs buffer was collected for measurement of secreted insulin. Cells were then lysed by 100 μl/well Krebs buffer with 1% DDM. Total insulin content was measured in 100-fold diluted cell lysate, A homogeneous time resolved fluorescence (HTRF) based ultra-sensitive insulin kit (Cisbio, cat. #62IN2PEG) was used to detect both secreted and total insulin as described previously (60).

[4] = test system: endogenous ZnT8 in EndoC-βH1 cells; assay: In-cell ZnT8-ELISA tracking the endogenous ZnT8 level under stressor exposure; type: cell-based, human
Method: Stressor exposures. PA-BSA conjugation was prepared by adding PA powder to a final concentration of 8 mM in 1.6 mM FFA-free BSA (Sigma, Cat. #A7030-50G) pre-dissolved in 135 mM NaCl, 3.6 mM KCl, 0.5 mM MgCl2, and 10 mM HEPES (pH 7.4). The mixture was incubated with gentle stir at 37° C. and then filter-sterilized and stored at 4° C. as described previously (79). When added to the cell culture, the PA-BSA mixture was diluted 13.3-fold with supplement of glucose to make a 1× Glc+PA solution containing 0.6 mM PA and 48 mM Glc. A cytokine cocktail was prepared before each experiment by mixing individual stock solutions of IL-1β, IFN-γ, IL-17, […] at respective concentrations used previously on human islets and EndoC-PHI cells (37). 1× cytokine cocktail in the culture medium contained 5 ng/ml IL-1β, 10 ng/ml TNF-α, 50 ng/ml IFN-γ and 100 ng/ml IL-17 All cytokines were provided by R&D Systems (Minneapolis, MN, USA). […] After a designated exposure period, the endogenous ZnT8 level in each well was analyzed along with stress-induced cytotoxicity, GSIS and cellular insulin content. […]
In-cell ELISAs. […] The HRP reaction was terminated at 5 min by transferring the reaction mixture to a 96-well opaque microplate for chemiluminescence quantification on a FlexStation-3 multi-mode microplate reader.

ZnT8 [5] = molecular target: T1, ZnT8 (Homo sapiens, UniProt Q8IWU4); conditions: cited from earlier work
T1 sequence (Q8IWU4 1-369): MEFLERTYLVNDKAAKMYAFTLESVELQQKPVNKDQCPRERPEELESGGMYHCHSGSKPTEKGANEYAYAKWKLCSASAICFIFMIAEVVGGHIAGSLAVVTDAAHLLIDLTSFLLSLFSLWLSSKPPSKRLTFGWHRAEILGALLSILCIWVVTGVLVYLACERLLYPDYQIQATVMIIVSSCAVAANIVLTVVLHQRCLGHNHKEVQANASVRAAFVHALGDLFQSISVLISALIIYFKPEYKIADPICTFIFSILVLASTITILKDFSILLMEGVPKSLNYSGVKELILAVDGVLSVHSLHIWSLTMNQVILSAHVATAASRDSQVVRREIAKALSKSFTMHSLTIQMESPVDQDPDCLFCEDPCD

[6] = 1 μM epoxomicin with 1× cytokines

## CC[C@H](C)[C@H](NC(=O)[C@H]([C@@H](C)CC)N(C)C(C)=O)C(=O)N[C@H](C(=O)N[C@@H](CC(C)C)C(=O)[C@@]1(C)CO1)[C@@H](C)O [epoxomicin]
ZnT8 [1]; [6]
  cytokine-induced downregulation of ZnT8: blocked
ZnT8 [1]; epoxomicin alone, 1 μM
  ZnT8 expression: neither altered ZnT8 expression
EndoC-βH1 cells [2]; combination of epoxomicin and 1× cytokine, 24 hr exposure
  damaged cells: 26.8%
EndoC-βH1 cells [3]; [6]
  cytokine-induced downregulation of insulin: blocked

## [Zn] [zinc]
[4]; extracellular zinc from trace amount (EDTA chelation) to 600 μM
  endogenous ZnT8 level, dose profile: biphasic change
[4]; extracellular zinc up to 600 μM
  zinc concentration at the peak of the biphasic ZnT8 profile: around 10 μM
EndoC-βH1 cells [2]; 600 μM zinc
  zinc toxicity (CellTox, FIG. 2F): zinc toxicity was evident
EndoC-βH1 cells [2]; modest zinc exposure (<=200 μM), compared to untreated cells
  cell integrity (CellTox fluorescence): did not alter the cell integrity
EndoC-βH1 cells [3]; increasing stressor concentration
  cellular insulin content, dose profile: increased the insulin content

B1: mAb39: anti-ZnT8 monoclonal antibody; heavy chain and light chain SEQ ID NOS:52 and 57 (antibody)
heavy: MGWSCIMFFLVATATDVHSQVQLQQPGAELVKPGASVKLSCKASGYSFTTYWMHWVKQRPGQGLEWVGDINPRNGRTNYNEKSKSKATLTVDISSSTVYMQVSSLTSEDSAVYYCAIWSGAMDYWGPGTSVTVSSAKTTAPSVYPLAPVCGDTTGSSVTLGCLVKGYFPEPVTLTWNSGSLSSDVHTFPALLQSGLYTLSSSVTVTTWPSQTITCNVAHPASSTKVDKKIEPRGSPTHKPCPPCPAPNLLGGPSVFIFPPKIKDVLMISLSPMVTCVVVDVSEDDPDVHVSWFVNNVEVHTAQTQTHREDYNSTIRVVSALPIQHQDWMSGKEFKCKVNNKALPAPIERTISKPKGPVRAPQVYVLPPPEEEMTKKQVTLTCMITDFMPEDIYVEWTNNGQTELNYKNTEPVLDSDGSYFMYSKLRVEKKNWVERNSYSCSVVHEGLHNHHTTKSFSRSPGK
light: MKLPVRLLVLMFWIPASSSDVVMTQTPLSLPVSLGDQPSISCKSSQSLVHNNGNTYLHWYLQKPGQSPKLLIYKVSNRFSGVPDRFSGSGSGTDFTLKISRVEAEDLGVYFCSQTTHVPPTFGGGTKLEIKRADAAPTVSIFPPSSEQLTSGGASVVCFLNNFYPKDINVKWKIDGSERQNGVLNSWTDQDSKDSTYSMSSTLTLTKDEYERHNSYTCEATHKTSTSPIVKSFNRGEC
modifications: mAb39 heavy chain; mAb39 light chain
ZnT8 [5]
  binding affinity: subnanomolar

B2: mAb20: anti-ZnT8 monoclonal antibody; heavy chain and light chain SEQ ID NOS:32 and 37 (antibody)
heavy: MDMRVPAQLLGLLLLWLRGARCQIQLVQSGPELKKPGETVKISCKASGYIFTNYPMHWVKQAPGKGLKWMGWINTYSGVPTHADDFKGRFAFSLETSANSAFLQINNLKNEDTATYFCTRSRITPTGGYAMDYWGQGTSVTVSSAKTTPPSVYPLAPGSAAQTNSMVTLGCLVKGYFPEPVTVTWNSGSLSSGVHTFPAVLQSDLYTLSSSVTVPSSTWPSETVTCNVAHPASSTKVDKKIVPRDCGCKPCICTVPEVSSVFIFPPKPKDVLTITLTPKVTCVVVDISKDDPEVQFSWFVDDVEVHTAQTQPREEQFNSTFRSVSELPIMHQDWLNGKEFKCRVNSAAFPAPIEKTISKTKGRPKAPQVYTIPPPKEQMAKDKVSLTCMITDFFPEDITVEWQWNGQPAENYKNTQPIMDTDGSYFVYSKLNVQKSNWEAGNTFTCSVLHEGLHNHHTEKSLSHSPGK
light: MDMRVPAQLLGLLLLWLRGARCDVVMTQTPLSLPVSLGDQASISCRSSQSLVHSNGNTYLHWYLQKPGQSPNLLISKVSNRFSGVPERFSGSGSGTDFTLKISRVEAEDLGVYFCSQNTHVPWTFGGGTKLEIKRADAAPTVSIFPPSSEQLTSGGASVVCFLNNFYPKDINVKWKIDGSERQNGVLNSWTDQDSKDSTYSMSSTLTLTKDEYERHNSYTCEATHKTSTSPIVKSFNRNEC
modifications: mAb20 heavy chain; mAb20 light chain
ZnT8 [5]
  binding affinity: subnanomolar
